Holding throughout (assay type): in vivo
Assay [1] has as its system Corn Earworm (CEW) (Helicoverpa zea). Nature of the assay: Bioassay on corn earworm (CEW), 128-well diet tray assay. The following applies: Helicoverpa zea; Corn earworm, 50 μg/cm^2; read-out: % Mortality CEW 50 μg/cm^2. The gist of the method: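 Second-instar Helicoverpa zea larvae (one to five per well) placed on artificial diet treated with 50 μg/cm^2 compound in 90:10 acetone-water, dried, eight wells per compound. Held at 25 °C, 14:10 light-dark, five to seven days; percent mortality averaged over wells.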

Assay [2] relates to Green Peach Aphid (GPA) (Myzus persicae). Kind of assay: Bioassay on green peach aphid (GPA), foliar spray on cabbage seedlings. Conditions: 72 h, read-out: % Mortality GPA 200 ppm. The method, then:
Bioassays on Green Peach Aphid (“GPA”) (Myzus persicae)
Certain molecules disclosed in this document were tested against GPA using procedures described in the following example. In the reporting of the results, the “GPA Rating Table” was used (See Table Section).
Cabbage seedlings grown in 3-inch pots, with 2-3 small (3-5 cm) true leaves, were used as test substrate. The seedlings were infested with 20-50 GPA (wingless adult and nymph stages) one day prior to chemical application. Four pots with individual seedlings were used for each treatment. Test compounds (2 mg) were dissolved in 2 mL of acetone/methanol (1:1) solvent, forming stock solutions of 1000 ppm test compound. The stock solutions were diluted 5× with 0.025% Tween 20 in H2O to obtain the solution at 200 ppm test compound. A hand-held aspirator-type sprayer was used for spraying a solution to both sides of […] leaves until runoff. Reference plants (solvent check) were sprayed with the diluent only containing 20% by volume of acetone/methanol (1:1) solvent. Treated plants were held in a holding room for three days at approximately 25° C. and ambient relative humidity (RH) prior to grading. Evaluation was conducted by counting the number of live aphids per plant under a microscope. Percent Control was measured by using Abbott's correction formula (W. S. Abbott, “A Method of Computing the Effectiveness of an Insecticide” J. Econ. Entomol. 18 (1925), pp. 265-267) as follows. Corrected%Control=100*(X−Y)/X • where • X=No. of live aphids on solvent check plants and • Y=No. of live aphids on treated plants
The results are indicated in the table entitled “Table 5: Biological Results” (See Table Section).

The test system of assay [3] is Beet Armyworm (BAW) (Spodoptera exigua). Kind of assay: Bioassay on beet armyworm (BAW), 128-well diet tray assay. The following applies: Spodoptera exigua; Beet armyworm, 50 μg/cm^2; read-out: % Mortality BAW 50 μg/cm^2. The gist of the method:
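Second-instar Spodoptera exigua larvae, one to five per well, on artificial diet treated with 50 μg/cm^2 compound in 90:10 acetone-water and dried, eight wells per compound. Held at 25 °C, 14:10 light-dark for five to seven days; percent mortality averaged over wells.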

Pest or weed control data for 31 molecules are collected here from patent US9018388B2, “Pesticidal compositions and processes related thereto” (Dow AgroSciences LLC, priority 2012, dated 2015).

Turning to `CCOCC(=O)OCS/C(=N\c1c(C)cccc1C)N/N=C/c1ccc(-c2ncn(-c3ccc(OC(F)(F)F)cc3)n2)cc1` [Compound 22C], the pest or weed control at 50 µg/cm2, 50 µg/cm2 in assay [1] and in assay [3] was 50 to 100% in each case. Also, the pest or weed control at 200 ppm in assay [2] was in the range of 0 to 80%.

On to `Cc1cccc(C)c1/N=C(/N/N=C/c1ccc(-c2ncn(-c3ccc(OC(F)(F)C(F)(F)F)cc3)n2)cc1)SCC(=O)O` [Compound 49C], for which the pest or weed control at 50 µg/cm2, 50 µg/cm2 in assay [1] and in assay [3] was 50 to 100% throughout. The pest or weed control at 200 ppm in assay [2] lay in the range of 0 to 80%.

Regarding `Cc1cccc(C)c1/N=C(/N/N=C/c1ccc(-c2ncn(-c3ccc(OC(F)(F)F)cc3)n2)cc1)SCc1ccc(OC(F)(F)F)cc1` [Compound 8C], the pest or weed control at 50 µg/cm2, 50 µg/cm2 in assay [1] and in assay [3] was 50 to 100% throughout. Besides, in assay [2], the pest or weed control at 200 ppm lay within 0 to 80%.

Take `CC1S/C(=N\N=C\c2ccc(-c3ncn(-c4ccc(OC(F)(F)F)cc4)n3)cc2)N(c2ccccc2C(C)C)C1=O` (centres unmarked) [Compound 88C]: the pest or weed control at 50 µg/cm2, 50 µg/cm2 in assay [1] and in assay [3] was 50 to 100% throughout. Further, in assay [2], the pest or weed control at 200 ppm is 0 to 80%.

In the case of `CCOCC(=O)OCS/C(=N\c1c(Cl)cc(OC)cc1Cl)N/N=C/c1ccc(-c2ncn(-c3ccc(OC(F)(F)F)cc3)n2)cc1` [Compound 32C], in assay [2], the pest or weed control at 200 ppm lay in the range of 0 to 80%.

With `FC(F)(F)Oc1ccc(-n2cnc(-c3ccc(/C=N/N=C4\SCCCN4c4ccccc4-c4ccccc4)cc3)n2)cc1` [Compound 194C], the pest or weed control at 50 µg/cm2, 50 µg/cm2 in assay [1] and in assay [3] was 50 to 100% throughout. Also, the pest or weed control at 200 ppm in assay [2] is 0 to 80%.

As to `Cc1cccc(C)c1-n1c(-c2cc(-c3ccc(Cl)cc3)no2)cs/c1=N\N=C\c1ccc(-c2ncn(-c3ccc(OC(F)(F)F)cc3)n2)cc1` [Compound 76C], the pest or weed control at 50 µg/cm2, 50 µg/cm2 in assay [1] and in assay [3] was 50 to 100% throughout. Moreover, the pest or weed control at 200 ppm in assay [2] is 0 to 80%.

With `FC(F)(F)Oc1ccc(-n2cnc(-c3ccc(/C=N/N=C4\SCCCN4c4ccccc4C4CC4)cc3)n2)cc1` [Compound 186C], the pest or weed control at 50 µg/cm2, 50 µg/cm2 in assay [1] and in assay [3] was 50 to 100% in each case. Further, the pest or weed control at 200 ppm in assay [2] was in the range of 0 to 80%.

`Cc1cc(C)c(N2CCS/C2=N\N=C\c2ccc(-c3ncn(-c4ccc(OC(F)(F)F)cc4)n3)cc2)c(C)c1` [Compound 139C]: the pest or weed control at 50 µg/cm2, 50 µg/cm2 in assay [1] and in assay [3] was 50 to 100% throughout. Moreover, the pest or weed control at 200 ppm in assay [2] was 0 to 80%.

On to `Cc1cccc(C)c1-n1c(-c2nccs2)cs/c1=N\N=C\c1ccc(-c2ncn(-c3ccc(OC(F)(F)F)cc3)n2)cc1` [Compound 75C], for which the pest or weed control at 50 µg/cm2, 50 µg/cm2 in assay [1] and in assay [3] was 50 to 100% in each case. Further, in assay [2], the pest or weed control at 200 ppm was 0 to 80%.

`CC(C)c1ccccc1N1C(=O)CCSC1=NN=Cc1ccc(-c2ncn(-c3ccc(OC(F)(F)F)cc3)n2)cc1` (stereo in doubt) [Compound 224C, (Z)-3-(2-isopropylphenyl)-2-((E)-(4-(1-(4-(trifluoromethoxy)phenyl)-1H-1,2,4-triazol-3-yl)benzylidene)hydrazono)-1,3-thiazinan-4-one]: the pest or weed control at 50 µg/cm2, 50 µg/cm2 in assay [1] and in assay [3] was 50 to 100% each time. For the same molecule, the pest or weed control at 200 ppm in assay [2] lay in the range of 0 to 80%.

As to `CCOc1ccccc1N1CCS/C1=N\N=C\c1ccc(-c2ncn(-c3ccc(OC(F)(F)F)cc3)n2)cc1` [Compound 146C], the pest or weed control at 50 µg/cm2, 50 µg/cm2 in assay [1] and in assay [3] was 50 to 100% each time. For the same molecule, the pest or weed control at 200 ppm in assay [2] was 0 to 80%.

On to `COc1cc(Cl)c(/N=C(/N/N=C/c2ccc(-c3ncn(-c4ccc(OC(F)(F)F)cc4)n3)cc2)SCOC(=O)OC(C)C)c(Cl)c1` [Compound 33C], for which the pest or weed control at 50 µg/cm2, 50 µg/cm2 in assay [1] and in assay [3] was 50 to 100% throughout. The pest or weed control at 200 ppm in assay [2] fell in the range of 0 to 80%.

With `CC(C)c1ccccc1/N=C1\SCCCN1/N=C/c1ccc(-c2ncn(-c3ccc(C(F)(F)F)cc3)n2)cc1` [Compound 87C, (2Z,NE)-2-((2-isopropylphenyl)imino)-N-(4-(1-(4-(trifluoromethyl)phenyl)-1H-1,2,4-triazol-3-yl)benzylidene)-1,3-thiazinan-3-amine], the pest or weed control at 200 ppm in assay [2] lay within 0 to 80%.

On to `COc1cc(Cl)c(/N=C(/N/N=C/c2ccc(-c3ncn(-c4ccc(OC(F)(F)F)cc4)n3)cc2)SCOC(=O)C(C)C)c(Cl)c1` [Compound 34C], for which, in assay [2], the pest or weed control at 200 ppm fell in the range of 0 to 80%.

Take `COc1ccc(C(C)/N=C(/N/N=C/c2ccc(-c3ncn(-c4ccc(OC(F)(F)F)cc4)n3)cc2)SCC(=O)O)cc1F` (centres unmarked) [Compound 53C]: the pest or weed control at 200 ppm in assay [2] was 0 to 80%. Besides, in assay [3], the pest or weed control at 50 µg/cm2, 50 µg/cm2 was in the range of 0 to 50%.

Consider `O=C1CS/C(=N\N=C\c2ccc(-c3ncn(-c4ccc(OC(F)(F)F)cc4)n3)cc2)N1c1ccccc1OC(F)F` [Compound 126C], for which the pest or weed control at 50 µg/cm2, 50 µg/cm2 in assay [1] and in assay [3] was 50 to 100% in each case.

Turning to `FC(F)(F)Oc1ccc(-n2cnc(-c3ccc(/C=N/N=C4\SCCN4c4ccccc4-c4ccccc4)cc3)n2)cc1` [Compound 144C], the pest or weed control at 50 µg/cm2, 50 µg/cm2 in assay [1] and in assay [3] was 50 to 100% throughout.

In the case of `Cc1cccc(C)c1N1C(=O)CS/C1=N\N=C\c1ccc(-c2ncn(-c3ccc(OC(F)(F)F)cc3)n2)cc1` [Compound 71C], the pest or weed control at 50 µg/cm2, 50 µg/cm2 in assay [1] and in assay [3] was 50 to 100% throughout.

Turning to `Cc1cccc(C)c1N1CCCCS/C1=N\N=C\c1ccc(-c2ncn(-c3ccc(OC(F)(F)F)cc3)n2)cc1` [Compound 211C], the pest or weed control at 50 µg/cm2, 50 µg/cm2 in assay [1] and in assay [3] was 50 to 100% each time.

With `Cc1cccc(C)c1/N=C(/N/N=C/c1ccc(-c2ncn(-c3ccc(OC(F)(F)F)cc3)n2)cc1)SCOC(=O)CNC(=O)OCc1ccccc1` [Compound 23C], the pest or weed control at 50 µg/cm2, 50 µg/cm2 in assay [1] and in assay [3] was 50 to 100% each time.

With `CC1CS/C(=N\N=C\c2ccc(-c3ncn(-c4ccc(OC(F)(F)F)cc4)n3)cc2)N1c1ccccc1OC(F)F` (centres unmarked) [Compound 164C], the pest or weed control at 50 µg/cm2, 50 µg/cm2 in assay [1] and in assay [3] was 50 to 100% throughout.

Take `CCc1ccccc1N1CCCS/C1=N\N=C\c1ccc(-c2ncn(-c3ccc(OC(F)(F)F)cc3)n2)cc1` [Compound 185C]: the pest or weed control at 50 µg/cm2, 50 µg/cm2 in assay [1] and in assay [3] was 50 to 100% throughout.

Turning to `CC1S/C(=N\N=C\c2ccc(-c3ncn(-c4ccc(OC(F)(F)F)cc4)n3)cc2)N(c2c(Cl)cccc2Cl)C1=O` (centres unmarked) [Compound 129C], the pest or weed control at 50 µg/cm2, 50 µg/cm2 in assay [1] and in assay [3] was 50 to 100% in each case.

`CC(C)c1ccc(F)cc1N1CS/C1=N\N=C\c1ccc(-c2ncn(-c3ccc(C(F)(C(F)(F)F)C(F)(F)F)cc3)n2)cc1` [Compound 257C]: the pest or weed control at 50 µg/cm2, 50 µg/cm2 in assay [1] and in assay [3] was 50 to 100% in each case.

Consider `CCC1CS/C(=N\N=C\c2ccc(-c3ncn(-c4ccc(OC(F)(F)F)cc4)n3)cc2)N1c1ccccc1C` (centres unmarked) [Compound 166C], for which the pest or weed control at 50 µg/cm2, 50 µg/cm2 in assay [1] and in assay [3] was 50 to 100% in each case.

As for `COc1cc(C)c(N2C(=O)CS/C2=N\N=C\c2ccc(-c3ncn(-c4ccc(OC(F)(F)F)cc4)n3)cc2)c(C)n1` [Compound 101C], the pest or weed control at 50 µg/cm2, 50 µg/cm2 in assay [1] and in assay [3] was 50 to 100% throughout.

Regarding `COc1ccc(C(C)/N=C(/N/N=C/c2ccc(-c3ncn(-c4ccc(OC(F)(F)F)cc4)n3)cc2)SCC(=O)O)cc1` (centres unmarked) [Compound 52C], the pest or weed control at 200 ppm in assay [2] lay in the range of 0 to 80%. For the same molecule, in assay [3], the pest or weed control at 50 µg/cm2, 50 µg/cm2 was 0 to 50%.

In the case of `Cc1cccc(C)c1/N=C(/N/N=C/c1ccc(-c2ncn(-c3ccc(OC(F)(F)F)cc3)n2)cc1)SCc1c(-c2ccccc2)noc1C` [Compound 20C], the pest or weed control at 50 µg/cm2, 50 µg/cm2 in assay [1] and in assay [3] was 50 to 100% throughout.

For `CC1CS/C(=N\N=C\c2ccc(-c3ncn(-c4ccc(OC(F)(F)F)cc4)n3)cc2)N1c1ccccc1C(C)(C)C` (centres unmarked) [Compound 165C], the pest or weed control at 50 µg/cm2, 50 µg/cm2 in assay [1] and in assay [3] was 50 to 100% in each case.

As to `Cc1cccc(C)c1/N=C(/N/N=C/c1ccc(-c2ncn(-c3ccc(OC(F)(F)F)cc3)n2)cc1)SCc1ccc(C(=O)O)cc1` [Compound 6C], the pest or weed control at 50 µg/cm2, 50 µg/cm2 in assay [1] and in assay [3] was 50 to 100% throughout.
